According to PMC12040169 (PLOS Biology, 2025):

Experiment: in vitro
Settings: human, hela cells, % viability

| SMILES | viability at 28.5 h, 10 µM [%] |
| --- | --- |
| OCCNc1cncc(-c2ccccc2)n1 [CBK065857] | 92 |
| O=C(CSc1nc(O)cc(O)n1)Nc1ccc(I)cc1 [CBK269467] | 103 |
| O=C(NCc1ccc2c(c1)OCO2)N1CCCCC1CO (stereo not drawn) [CBK156166] | 89.3 |
| Cc1cc(C)n2c(SCC(C)(C)NS(=O)(=O)c3ccccc3)nnc2n1 [CBK268369] | 111 |
| CCNC(=O)N1Cc2nc[nH]c2C[C@H]1C(=O)NCc1ccc(OC)cc1 [CBK288973] | 115 |
| NS(=O)(=O)c1ccc(N/C(S)=N\c2cccc(C(=O)O)c2)cc1 [CBK266880] | 103 |
| Cc1nn(C)c(=O)c2c(C)noc12 [CBK001462] | 101 |
| CC(=O)Nc1ccc([C@@H](O)[C@H]2COCC(=O)N2Cc2ccc(C(F)(F)F)cc2)cc1 [CBK289678] | 92.7 |
| CC(Cc1ccccn1)N(C)C(=O)c1cccc(N2CCCC2=O)c1 (stereo not drawn) [CBK282153] | 104 |
| CN1C[C@@H](NC(=O)Nc2ccccc2)C[C@H]1c1nc(-c2ccccc2)no1 [CBK288877] | 124 |
| Fc1cc(Br)ccc1COc1cccnc1Cl [CBK161281] | 68.4 |
| CCN(CCCCC1NC(=O)NC1=O)Cc1ccncc1 (stereo not drawn) [CBK143967] | 89.1 |
| COc1ccccc1NC(=O)/C(=C\c1cccnc1)NC(=O)c1ccccc1 [CBK261649] | 89.6 |
| O=C(O)CCC(=O)NCCCc1ccccc1 [CBK265465] | 86.7 |
| O=C1CC2(CCCC2)C(=O)N1c1ccc(S(=O)(=O)NC2CCN(Cc3ccccc3)CC2)cc1Cl [CBK074650] | 99.8 |
| Cc1cc(C)n(CC(=O)N2CCNCC2c2cccc(Cl)c2)n1 (stereo not drawn) [CBK304116] | 92.7 |
| COc1ccc(OC(=O)c2csc(Cc3c(Cl)cccc3Cl)n2)cc1 [CBK083573] | 95.7 |
| CC(C)(C)OC(=O)N1CCN(c2cncc(NCc3ccccc3)n2)CC1 [CBK000154] | 112 |
| Nc1ccc(C(=O)Nc2ccc(Nc3cc(-c4ccco4)ncn3)cc2)cc1 [CBK091099] | 96.5 |
| CCCCCc1nnc(NC(=O)c2cccs2)s1 [CBK058382] | 103 |
| Cn1nc2c(c1C(=O)N1CCc3[nH]c4ccccc4c3C1)CCCC2 [CBK281844] | 79.7 |
| O=C(O)CNS(=O)(=O)c1c(F)c(F)c(F)c(F)c1F [CBK269986] | 84.6 |
| Cc1ccc(S(=O)(=O)c2ccccc2)cc1S(=O)(=O)NCc1ccncc1 [CBK270073] | 98.4 |

| SMILES | viability at 28.5 h, 10 µM [%] |
| --- | --- |
| O=C(NS(=O)(=O)c1ccccc1)c1ccccc1 [CBK288429] | 88.2 |
| CC(C)c1ccc(S(=O)(=O)Nc2ccc(C(=O)O)c(O)c2)cc1 [CBK299819] | 104 |
| CC(=O)NCCOc1nc(N(C)C)nc(N2CCOCC2)n1 [CBK266651] | 96.7 |
| CN1CCN(C(=O)CC[C@@H]2CNC(=O)[C@@H]3C[C@H](NC(=O)c4ccccc4)CN23)CC1 [CBK289014] | 86.7 |
| Cc1ccccc1Nc1nc(-c2ccc([N+](=O)[O-])cc2)nc2ccccc12 [CBK264803] | 119 |
| CCCS(=O)(=O)NC1CC(C)(C)Cc2c1cnn2-c1ccc(F)cc1 (stereo not drawn) [CBK306770] | 113 |
| Cc1n[nH]c(=S)n1-c1ccc(Cl)cc1 [CBK012457] | 94.5 |
| CCOc1ccc(-c2ccnc(N[C@H]3CC[C@@H](N)CC3)n2)cc1C(=O)O [CBK307104] | 89.8 |
| Cn1ccnc1C1(O)CC2CCC(C1)N2C(=O)c1cccc(F)c1 (stereo not drawn) [CBK284089] | 93.9 |
| CN(Cc1ccsc1)C(=O)c1cccc(S(=O)(=O)NC(C)(C)C)c1 [CBK305425] | 81.2 |
| CCN1CCN(C(=O)C2CC=CCC2C(=O)O)CC1 (stereo not drawn) [CBK270295] | 91.6 |
| Cc1cc([N+](=O)[O-])cc[n+]1[O-] [CBK261014] | 102 |
| CC(C)(C)OC(=O)N1CCCC(C(=O)NC2CCCc3ccccc32)C1 (stereo not drawn) [CBK305617] | 93.2 |
| Cc1cccc(-c2cc(C(=O)Nc3sc4c(c3C#N)CCCCCC4)c3ccccc3n2)c1 [CBK262632] | 103 |
| O=S(=O)(/N=C(/NS(=O)(=O)c1cccc2ccccc12)c1ccccc1)c1ccccc1 [CBK263105] | 112 |
| O=C(CSc1nnc(-c2ccccc2O)n1-c1ccccc1)Nc1ccc(N2CCOCC2)cc1 [CBK267874] | 103 |
| COc1ccc(F)cc1-c1ccccc1CC1(C(=O)NCCc2ccccc2)CCOCC1 [CBK286424] | 97.5 |
| Cc1nccn1C(C(=O)NCC1(C)COC1)c1ccccc1 (stereo not drawn) [CBK281743] | 97.9 |
| O=C(COc1ccc(Cl)cc1Br)N1CCCCCC1 [CBK058661] | 82.8 |
| NC(=O)CN1CC2(CCN(CCCn3c(=O)[nH]c4ccccc43)CC2)c2ccccc21 [CBK126787] | 89.6 |
| Cc1cc(C)n(CCC(=O)NCC(c2ccccn2)N2CCOCC2)n1 (stereo not drawn) [CBK307396] | 105 |
| CN(C)S(=O)(=O)c1cccc(C(=O)NCCc2ccccc2)c1 [CBK267793] | 91.3 |
| CC(C)(C)Nc1c(C2CCCN(C(=O)C3CC3)C2)nc2ccccn12 (stereo not drawn) [CBK284759] | 105 |

| SMILES | viability at 28.5 h, 10 µM [%] |
| --- | --- |
| Cc1c(F)cccc1CN1CCCN(S(=O)(=O)c2ccc(-c3ccccc3)cc2)CC1 [CBK062977] | 95.9 |
| CCCC/C=C/c1nccnc1N[C@@H](C)c1ccccc1 [CBK037138] | 84.7 |
| Cc1cccc(-c2ccc(CC3(C(N)=O)CCN(C(=O)CCc4ccccc4)CC3)cc2)c1 [CBK285796] | 110 |
| COc1cc(CNc2cc(-c3cccc4cccnc34)ncn2)cc(OC)c1OC [CBK091179] | 76.6 |
| CC(C)c1ccc(C(C)NC(=O)Cn2cc(C(=O)NC3CCCC3)ccc2=O)cc1 (stereo not drawn) [CBK286121] | 103 |
| Cc1ccc(Cc2cnc(NC(=O)NCCN3CCOCC3)s2)cc1F [CBK305449] | 93.6 |
| CN(Cc1c(C2CCNCC2)[nH]c2ncccc12)C1CCCCC1 [CBK285079] | 93.3 |
| Cc1cccc(CN(CC(=O)Nc2ccc(F)cc2F)S(=O)(=O)c2ccc(Cl)cc2)c1 [CBK265164] | 84.9 |
| O=C(O)C1CC(=O)N(Cc2ccccc2)C1c1ccccc1 (stereo not drawn) [CBK286876] | 89.1 |
| Cc1ccccc1-c1cc(C(=O)N(C)C)c2cnn(C(C)C)c2n1 [CBK306245] | 98.6 |
| CCCC/C=C/c1cn2ccnc2c(N2CCOCC2)n1 [CBK038031] | 100 |
| CC(=O)Nc1cccc(Oc2nccnc2-c2ccc(C)cc2C)c1 [CBK106986] | 95.3 |
| CCOc1cc(NC2CCN(C(=O)OC(C)(C)C)CC2)ncn1 [CBK306288] | 89.6 |
| Cn1ccnc1Sc1nc2ccccc2nc1C(F)(F)F [CBK093778] | 106 |
| CCCc1n[nH]c(-c2ccc(Cl)cc2Cl)c1C(=O)OCC [CBK113548] | 107 |
| N#Cc1nc(/C=C/c2cccs2)oc1NCCCn1ccnc1 [CBK269455] | 84.1 |
| Cc1cc(NC(=O)CS(=O)(=O)Cc2cccc(C(F)(F)F)c2)no1 [CBK304520] | 99.3 |
| CC(=O)NC1(c2ccccc2F)CCN(CC(=O)N(C)C)CC1 [CBK283618] | 103 |
| N#CCCN1CCCC2(C1)NCCc1c2[nH]c2ccccc12 (stereo not drawn) [CBK040031] | 97 |
| CC(C)(C)c1ccc(-c2nc3ncccc3cc2N)cc1 [CBK067611] | 94.4 |
| C#CCOc1cc(Br)c(/C=C(/C#N)c2ccc([N+](=O)[O-])cc2)cc1OCC [CBK266617] | 104 |
| CN(C)CCCN(Cc1ccco1)Cc1cccn1-c1ccccn1 [CBK283180] | 99.8 |
| CC(=O)c1ccc(NC(=O)Nc2nnc(CCN3CCCC3)s2)cc1 [CBK174990] | 92.6 |

| SMILES | viability at 28.5 h, 10 µM [%] |
| --- | --- |
| COC(=O)c1c(NC(=O)COc2ccccc2Cl)sc2c1CCC(c1ccccc1)C2 (stereo not drawn) [CBK265456] | 90.3 |
| CCc1nnc(NS(=O)(=O)c2cc(C(=O)O)c(Cl)cc2F)s1 [CBK062195] | 90.9 |
| CN(C)CCN(C)c1cncc(-c2cccc(/C=C/C(=O)O)c2)n1 [CBK065451] | 99.5 |
| Cc1cc(COC(=O)Nc2ccc3nc(C)ccc3c2)cc(C)n1 [CBK200127] | 90.5 |
| COc1ccc(-c2nc(NC(=O)C3CCC(OC)CC3)cnc2-c2ccc(F)cc2)cc1 (stereo not drawn) [CBK037004] | 88.4 |
| COc1ccc(Cl)cc1S(=O)(=O)N1CCC(C(=O)NCCCO)CC1 [CBK269835] | 99 |
| NC(=O)c1c(NC(=O)CSC2=NCCS2)sc2c1CCCC2 [CBK269989] | 87.9 |
| CC(C)c1ccc(/C=C/C(=O)NCCc2c[nH]cn2)cc1 [CBK149629] | 101 |
| CCOc1cccc(NC(=O)/C(C#N)=C\c2cc(C)n(-c3ccc4c(c3)OCO4)c2C)c1 [CBK263191] | 85.9 |
| O=C(CSc1nnc(Cc2ccccc2)o1)N1c2ccccc2Sc2ccccc21 [CBK268008] | 96.4 |
| N#CCCn1cc(C(=O)N2CCCCC2)c(-c2cccc(Br)c2)n1 [CBK306202] | 89.4 |
| Nc1ncnc2c1C(c1ccc(Cl)cc1)c1c(ccc3ccccc13)O2 (stereo not drawn) [CBK263938] | 101 |
| COc1ccc(-c2n[nH]c(=S)n2CCC(=O)NCc2ccc(CN3CCCCC3)cc2)cc1 [CBK297918] | 94.5 |
| COc1ccc(Oc2nccnc2N2CCN(CCCC#N)CC2)cc1OC [CBK083056T] | 95.5 |
| CCC(C)Oc1ccccc1OCCN1C(=O)NC(C)(C)C1=O (stereo not drawn) [CBK267362] | 98.5 |
| c1cnc(N2CCCC2)c(OC2CCNC2)n1 (stereo not drawn) [CBK115284] | 98.3 |
| CCn1c(SCc2cc(C)no2)nnc1C1CC1 [CBK297758] | 102 |
| Clc1ccc(OCc2ccccc2)c(CNCCN2CCOCC2)c1 [CBK278162C] | 93.4 |
| O=C(Nc1cnc(-c2ccc(F)c(Cl)c2)c(-c2cccnc2)n1)c1ccc(N2CCCC2=O)cc1 [CBK036794] | 107 |
| O=C(O)c1cc(C(=O)O)n(Cc2ccccc2Cl)n1 [CBK269381] | 88.1 |
| COc1ccccc1NC(=O)CN(c1ccc(Br)cc1)S(C)(=O)=O [CBK265254] | 99.3 |
